Assay results reported in patent publication US20240252581A1, “COMPOSITIONS AND METHODS FOR TREATING RESPIRATORY DISTRESS” (S.I.S. SHULOV INNOVATIVE SCIENCE LTD., priority 2021, published 2024).
Like-named read-outs stand apart in the source and are kept apart here. Square brackets hold non-standard residues; d marks the D form. Peptide text beside a SMILES is read from it. * marks the point of attachment. pGlu = O=C1CC[C@@H](C(=O)O)N1; Octanoyl = CCCCCCCC(=O)*

Legend:
[1] = Toxicity of ZEP3Na in intratracheal administration, daily for 14 days; type: in vivo, rats
Method: The toxicological effect of ZEP3Na administered intratracheally to rats was evaluated. Doses of 0.5, 1.0, and 2.5 mg ZEP3Na dissolved in saline were administered daily into the lungs for a period of 14 days. On day 15, necroscopy and histology of brain, heart, thymus, lungs, spleen, liver, kidneys, and gonads were performed. In addition, blood cell counts and chemistry parameters were counted. Also, the cell distribution (%) of the bronchial alveolar lavage fluid (BALF) was determined by FACS instrumentation for B cells, T cells, neutrophils, and macrophages.

ACE2 mRNA = experiment: Relative ACE2 mRNA expression in lung tissue (real-time quantitative PCR); type: in vivo, mouse; conditions: in relation to rplO gene
Method: In order to test the efficacy of ZEP3 sodium on lung inflammation, the lipopolysaccharide (LPS)-induced acute lung injury model was used. In particular, LPS was administered intratracheally at doses of 10 or 40 mg/kg body weight (BW) corresponding to 0.2 or 0.8 mg/mouse, respectively.
Relative ACE2 mRNA expression in lung tissue was determined as follows: mRNA was extracted from lung tissues, real-time quantitative PCR was employed, and expression of ACE2 gene in relation to rplO gene was measured.

[2] = determined daily during the study
Method: The effect of ZEP3Na administered intratracheally in a mice model of acute respiratory distress syndrome was evaluated. BALB/c mice were anaesthetized and orally intubated with a sterile plastic catheter and challenged with intratracheal instillation of 0.2 mg or 0.8 mg of LPS dissolved in 50 μL of PBS. Naïve mice (without LPS instillation) were injected with the same volume of saline to serve as controls. Six hours following LPS instillation, mice were administered intratracheally with ZEP3Na at two doses, namely 0.1 and 0.4 mg. The study was terminated 72 hours after LPS challenge to collect tissues for analysis.
Animal body weights were determined daily during the study.

[3] = rats, 0.5, 1.0, and 2.5 mg intratracheally daily for 14 days

With `CCCCCCCC(=O)NCCCC[C@H](NC(=O)[C@H](Cc1c[nH]c2ccccc12)NC(=O)[C@H](CC(N)=O)NC(=O)[C@@H]1CCC(=O)N1)C(=O)O` [ZEP3Na, pGlu-Asn-Trp-Lys(Octanoyl)-ONa] ([pGlu]NWK(Octanoyl)-OH) the “blood counts and chemistry” value [1, 3] was “comparable to the reference items”, the body weight [1, 3] was “remained similar to that of the control group” and the “mortality or abnormal signs of behavior” value [1, 3] was “No mortality or abnormal signs of behavior”. The “distribution of B cells, T cells, neutrophils, and macrophages in BALF” value ([1]; rats, 0.5, 1.0, and 2.5 mg intratracheally daily for 14 days, FACS) was “No changes”, the “necroscopy and histology of the inspected organs” value ([1]; rats, day 15, brain, heart, thymus, lungs, spleen, liver, kidneys, gonads) was “no pathological changes” and the “adverse effects in all parameters tested” value ([1]; rats, intratracheal, up to 2.5 mg daily for 14 days) was “did not result in any detectable adverse effects”. The “Relative ACE2 mRNA expression (Mean ± SEM)” value (ACE2 mRNA; LPS 0.2 mg + ZEP3 Na 0.1 mg) was 0.672 ± 0.145, the “Relative ACE2 mRNA expression (Mean ± SEM)” value (ACE2 mRNA; LPS 0.2 mg + ZEP3 Na 0.4 mg) was 1.239 ± 0.132 and the “Relative ACE2 mRNA expression (Mean ± SEM)” value (ACE2 mRNA; LPS 0.8 mg + ZEP3 Na 0.1 mg) was 0.223 ± 0.031. The “Relative ACE2 mRNA expression (Mean ± SEM)” value (ACE2 mRNA; LPS 0.8 mg + ZEP3 Na 0.1 mg, listed as ZEP3 sodium) was 0.22, the “Relative ACE2 mRNA expression (Mean ± SEM)” value (ACE2 mRNA; LPS 0.8 mg + ZEP3 Na 0.4 mg) was 0.805 ± 0.251 and the “Relative ACE2 mRNA expression (Mean ± SEM)” value (ACE2 mRNA; ZEP3 Na 0.1 mg, no LPS) was 1.750 ± 0.320. The “Relative ACE2 mRNA expression (Mean ± SEM)” value (ACE2 mRNA; ZEP3 Na 0.4 mg, no LPS) was 0.303 ± 0.025 and the body weight [2] was “No major changes”.
